Data on 51 compounds can be found in US8293729B2 (Boehringer Ingelheim International GmbH, priority 2009, dated 2012).

pEC50: −log10 of the molar value. Where only a bound is given, the exact number is not on record here.

The first assay addresses T1, human GPR119 receptor (Homo sapiens, UniProt Q8TDV5, S329A/T327A).
T1 construct: N-terminal leader […]; expressed in transfected cells
T1 sequence (Q8TDV5 with tags, fused parts or gaps T327A/S329A): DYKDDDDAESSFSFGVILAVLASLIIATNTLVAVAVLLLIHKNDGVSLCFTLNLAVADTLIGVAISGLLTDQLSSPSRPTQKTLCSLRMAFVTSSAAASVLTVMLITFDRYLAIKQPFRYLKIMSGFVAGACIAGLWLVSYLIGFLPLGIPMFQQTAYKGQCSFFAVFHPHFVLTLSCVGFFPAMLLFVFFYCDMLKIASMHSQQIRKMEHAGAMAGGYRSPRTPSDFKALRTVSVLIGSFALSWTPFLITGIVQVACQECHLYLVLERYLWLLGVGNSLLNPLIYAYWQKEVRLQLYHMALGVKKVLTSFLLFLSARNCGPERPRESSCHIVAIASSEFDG
Put plainly: cAMP assay (LANCE cAMP-384) in HEK293 cells stably expressing mutant human GPR119 receptor. As to conditions: HEK293, 20 min; at 10 μM; printed in EC50 column of the 34th table; read-out: stimulation in % at 10 μM. It counts as cell-based. Summed up:
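HEK293 cells stably expressing human GPR119 (T327A/S329A, modified N-terminus), 1000 cells/well, exposed to compound for 20 min at 37° C. cAMP quantified by LANCE TR-FRET against a standard curve; EC50 from 12 points, 30 μM to 100 pM, or % stimulation at 10 μM.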
Regarding `CC(C)OC(=O)CN1CCC(ON=C2CCN(c3ccc(S(C)(=O)=O)cc3F)CC2)CC1` [Example 65-3], the activation at 10 µM came to 64%.

Still in this assay, the particulars now being: HEK293, 20 min; at 10 μM; printed in EC50 column of the 36th table; read-out: stimulation in % at 10 μM.
Turning to `Cc1ccc(CN2CCC(ON=C3CCN(c4ccc(S(C)(=O)=O)cc4F)CC3)CC2)c(F)c1F` [Example 66-48], the activation at 10 µM amounted to 99%. Turning to `CS(=O)(=O)c1ccc(N2CCC(=NOC3CCN(Cc4ccc5c(c4)OCO5)CC3)CC2)c(F)c1` [Example 66-37], the activation at 10 µM turned out to be 87%.

Staying with this assay, now noted: HEK293, 20 min; single concentration 10 μM; given where no EC50 value could be determined; read-out: % stimulation at 10 μM.
On to `CC(C)OC(=O)N1CCC(ON=C2CCN(c3nccc(CO)c3F)CC2)CC1` [Example 2-64], for which the activation at 10 µM was 79%.

The same assay, now with this note: cAMP accumulation, HEK293 cells stably expressing mutant human GPR119; read-out: EC50.
As to `CC(C)OC(=O)N1CCC(ON=C2CCN(c3cc(F)c(NC(=N)N)cc3F)CC2)CC1` [Example 36-1, 4-[1-(2,5-Difluoro-4-guanidino-phenyl)-piperidin-4-ylideneaminooxy]-piperidine-1-carboxylic acid isopropyl ester], the pEC50 is 5.88. On the same count and under the same terms, the figure for `CC(C)OC(=O)N1CCC(ON=C2CCN(c3ncc(CO)cc3F)CC2)CC1` [Example 53-1, 4-(3′-Fluoro-5′-hydroxymethyl-2,3,5,6-tetrahydro-[1,2′]bipyridinyl-4-ylideneaminooxy)-piperidine-1-carboxylic acid isopropyl ester] is 6.65. The same measure, in the same setting: for `Cc1noc(C)c1-c1cc(F)c(N2CCC(=NOC3CCN(C(=O)OC(C)C)CC3)CC2)cc1F` [Example 27-2] the value was below 5.00.

For `CC(C)OC(=O)N1CCC(ON=C2CCN(c3cccc(S(C)(=O)=O)c3)CC2)CC1` [Example 32-3], the pEC50 was below 5.00. As to `CC(C)OC(=O)N1CCC(ON=C2CCN(c3cc(F)c(NS(C)(=O)=O)cc3F)CC2)CC1` [Example 44-1, 4-[1-(2,5-Difluoro-4-methanesulfonylamino-phenyl)-piperidin-4-ylideneaminooxy]-piperidine-1-carboxylic acid isopropyl ester], the pEC50 is 6.77.

As to `CC(C)OC(=O)N1CCC(ON=C2CCN(c3c(F)c(F)c(C(N)=O)c(F)c3F)CC2)CC1` [Example 2-57], the pEC50 was 7.25. On the same count and under the same terms, the figure for `CC(C)OC(=O)N1CCC(ON=C2CCN(c3cc(F)c(-c4ccc[nH]4)cc3F)CC2)CC1` [Example 27-7] is 6.36; for `CC(C)OC(=O)N1CCC(ON=C2CCN(c3nccc(Cl)n3)CC2)CC1` [Example 2-47] it is 5.70; for `CC(C)OC(=O)N1CCC(ON=C2CCN(c3nccc(C(F)(F)F)n3)CC2)CC1` [Example 2-66] it is below 5.00. Take `Cc1cnccc1N1CCC(=NOC2CCN(C(=O)OC(C)C)CC2)CC1` [Example 2-51]: the pEC50 is 6.02.

For the compound `CC(C)OC(=O)N1CCC(ON=C2CCN(c3cc(F)c(-c4cc[nH]n4)cc3F)CC2)CC1` [Example 27-9], the pEC50 is 6.63.

As for `CC(C)OC(=O)N1CCC(ON=C2CCN(c3cc(F)c(C(N)=O)cc3F)CC2)CC1` [Example 2-32], the pEC50 was 7.60.

Consider `CC(C)OC(=O)N1CCC(ON=C2CCN(c3cc(F)c(-c4ccccn4)cc3F)CC2)CC1` [Example 27-27], for which the pEC50 is 6.80. With `CC(C)OC(=O)N1CCC(ON=C2CCN(c3cc(F)c(CS(C)(=O)=O)cc3F)CC2)CC1` [Example 13-1, 4-[1-(2,5-Difluoro-4-methanesulfonylmethyl-phenyl)-piperidin-4-ylideneaminooxy]-piperidine-1-carboxylic acid isopropyl ester], the pEC50 is 7.52.

Still in this assay, the particulars now being: the 15th table; read-out: EC50.
As for `CC(C)OC(=O)N1CCC(ON=C2CCN(c3cc(F)c(C(=O)NCCCO)cc3F)CC2)CC1` [Example 29-9], the pEC50 was 7.03. Same read-out and setting: the figure for `CC(C)OC(=O)N1CCC(ON=C2CCN(c3cc(F)c(C(=O)NCCO)cc3F)CC2)CC1` [Example 29-11] is 7.08. Same read-out and setting: for `CC(C)OC(=O)N1CCC(ON=C2CCN(c3cc(F)c(C(=O)NCCN(C)C)cc3F)CC2)CC1` [Example 29-2] the value was 6.35.

The same assay, now with this note: the 19th table; unit inferred; read-out: EC 50.
As for `CCc1cnc(N2CCC(ON=C3CCN(c4cc(F)c(C(=O)N5C[C@H]6CNC[C@H]6C5)cc4F)CC3)CC2)nc1` [Example 29-111], the pEC50 is 6.53.

Turning to `CCc1cnc(N2CCC(ON=C3CCN(c4cc(F)c(C(=O)N5CCC(N)CC5)cc4F)CC3)CC2)nc1` [Example 29-126], the pEC50 is 6.33.

Take `CCc1cnc(N2CCC(ON=C3CCN(c4cc(F)c(C(=O)NCC5CCCNC5)cc4F)CC3)CC2)nc1` (stereo not drawn) [Example 29-93]: the pEC50 is 7.25.

The same assay, now with this note: the 31st table; read-out: EC50.
For `CC(C)OC(=O)N1CCC(ON=C2CN(c3ccc(S(C)(=O)=O)cc3F)C2)CC1` [Example 61-3], the pEC50 is 6.79.

Staying with this assay, now noted: the 32nd table; read-out: EC50.
Take `Cc1cc(C)nc(N2CCC(ON=C3CCN(c4ccc(S(C)(=O)=O)cc4F)CC3)CC2)n1` [Example 63-18]: the pEC50 was below 5.00.

Consider `Cc1cccc(N2CCC(ON=C3CCN(c4ccc(S(C)(=O)=O)cc4F)CC3)CC2)n1` [Example 63-2], for which the pEC50 is 5.90.

Turning to `CS(=O)(=O)c1ccc(N2CCC(=NOC3CCN(c4ccc(C#N)cn4)CC3)CC2)c(F)c1` [Example 63-23], the pEC50 is 5.89.

The same assay, now with this note: the 33rd table; read-out: EC50.
Turning to `CS(=O)(=O)c1ccc(N2CCC(=NOC3CCN(C(=O)O[C@H]4CNC(=O)C4)CC3)CC2)c(F)c1` [Example 64-11], the pEC50 is below 5.00.

Consider `COC(=O)[C@@H](C)COC(=O)N1CCC(ON=C2CCN(c3ccc(S(C)(=O)=O)cc3F)CC2)CC1` [Example 64-24], for which the pEC50 is 6.15. The same measure, in the same setting: for `CS(=O)(=O)c1ccc(N2CCC(=NOC3CCN(C(=O)OCCN4CCCCC4)CC3)CC2)c(F)c1` [Example 64-28] the value was below 5.00; for `CC(CN(C)C)OC(=O)N1CCC(ON=C2CCN(c3ccc(S(C)(=O)=O)cc3F)CC2)CC1` (stereo not drawn) [Example 64-14], below 5.00; for `CC(N)COC(=O)N1CCC(ON=C2CCN(c3ccc(S(C)(=O)=O)cc3F)CC2)CC1` (stereo not drawn) [Example 64-34], below 5.00. As to `CC(N)COC(=O)N1CCC(ON=C2CCN(c3ccc(S(C)(=O)=O)cc3F)CC2)CC1` (stereo not drawn) [Example 64-35], the pEC50 was below 5.00. As to `CC1CC1COC(=O)N1CCC(ON=C2CCN(c3ccc(S(C)(=O)=O)cc3F)CC2)CC1` (stereo not drawn) [Example 64-8], the pEC50 is 7.49.

For `CC(OC(=O)N1CCC(ON=C2CCN(c3ccc(S(C)(=O)=O)cc3F)CC2)CC1)C1CC1` (stereo not drawn) [Example 64-5], the pEC50 was 7.05. As to `CS(=O)(=O)c1ccc(N2CCC(=NOC3CCN(C(=O)OC4CCC4)CC3)CC2)c(F)c1` [Example 64-1, 4-[1-(2-Fluoro-4-methanesulfonyl-phenyl)-piperidin-4-ylideneaminooxy]-piperidine-1-carboxylic acid cyclobutyl ester], the pEC50 is 7.09.

Still in this assay, the particulars now being: the 34th table, compounds 65-1 to 65-24; read-out: EC50.
`CC(C)(C)COC(=O)N1CCC(ON=C2CCN(c3ccc(S(C)(=O)=O)cc3F)CC2)CC1` [Example 65-7]: the pEC50 was 7.24.

As for `CC(C)(C)NC(=O)N1CCC(ON=C2CCN(c3ccc(S(C)(=O)=O)cc3F)CC2)CC1` [Example 65-11], the pEC50 was 5.98.

For `CS(=O)(=O)c1ccc(N2CCC(=NOC3CCN(C(=O)c4ccccc4)CC3)CC2)c(F)c1` [Example 65-21], the pEC50 is 6.13. With `CS(=O)(=O)c1ccc(N2CCC(=NOC3CCN(C(=O)Oc4ccccc4)CC3)CC2)c(F)c1` [Example 65-12], the pEC50 is 7.24.

The assay is the same for the next values; noted with them: the 36th table, compounds 66-1 to 66-51; read-out: EC50.
Take `CC(=O)Nc1ccc(CN2CCC(ON=C3CCN(c4ccc(S(C)(=O)=O)cc4F)CC3)CC2)cc1` [Example 66-39]: the pEC50 was below 5.00. `CC(C)(C)CN1CCC(ON=C2CCN(c3ccc(S(C)(=O)=O)cc3F)CC2)CC1` [Example 66-22]: the pEC50 is 5.86. Regarding `CS(=O)(=O)c1ccc(N2CCC(=NOC3CCN(Cc4ccccn4)CC3)CC2)c(F)c1` [Example 66-3], the pEC50 was below 5.00. Same read-out and setting: for `CS(=O)(=O)c1ccc(N2CCC(=NOC3CCN(Cc4ncc[nH]4)CC3)CC2)c(F)c1` [Example 66-2] the value was below 5.00.

Still in this assay, the particulars now being: the 38th table, compounds 66-65 to 66-72; read-out: EC50.
`CNC(=O)c1cc(F)c(N2CCC(=NOC3CCN(Cc4ccc(C(F)(F)F)cc4)CC3)CC2)cc1F` [Example 66-67]: the pEC50 is 6.81.

The same assay, now with this note: the 43rd table, compounds 75-1 to 75-38; read-out: EC50.
Regarding `CC(C)OC(=O)N1CCC(ON=C2CCN(c3cc(F)c(CC(=O)N4CC[C@H](CN)C4)cc3F)CC2)CC1` [Example 75-15], the pEC50 is 7.54. In the case of `CC(C)OC(=O)N1CCC(ON=C2CCN(c3cc(F)c(CC(=O)N4CCC(CN)CC4)cc3F)CC2)CC1` [Example 75-9], the pEC50 is 6.84. As to `CC(C)OC(=O)N1CCC(ON=C2CCN(c3cc(F)c(CC(=O)N4CCC[C@@H](N)C4)cc3F)CC2)CC1` [Example 75-14], the pEC50 was 7.29.

Consider `CC(C)OC(=O)N1CCC(ON=C2CCN(c3cc(F)c(CC(=O)N4CCC(CN5CCCC5)CC4)cc3F)CC2)CC1` [Example 75-34], for which the pEC50 was 6.84.

Still in this assay, the particulars now being: the 44th table, compounds 77-1 to 77-14; read-out: EC50.
In the case of `CCc1cnc(N2CCC(ON=C3CCN(c4cc(F)c(CC(=O)N5CCC[C@H](N)C5)cc4F)CC3)CC2)nc1` [Example 77-7], the pEC50 is 7.35.
